Values joined by “and” are separate entries in the source; they are usually repeats but may differ in a detail not shown here. Identical values can stand only once. Inconclusive results and toxic doses are left out. Rule for the calls: active = survival T/C of 150% or more; inactive = T/C below 125% in these data.
System: P388 leukemia ip, CD2F1 mice, survival T/C
Test: NCI In Vivo Anticancer Drug Screen. Data for tumor model P388 Leukemia (intraperitoneal) in CD2F1 (CDF1) mice
Conditions: endpoint: median survival time, higher = longer survival
Method in brief: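 Mice carrying the transplanted tumor received test compound or vehicle. Survival was recorded in each group, and the value is the treated-group measurement divided by that of the vehicle-treated control group.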

[1] = dose: 50.0 mg/kg/injection, schedule: Q01DX009 (ip), vehicle: Klucel (hydroxypropylcellulose) (HPC)
[2] = dose: 100.0 mg/kg/injection, schedule: Q01DX009 (ip), vehicle: Klucel (hydroxypropylcellulose) (HPC)
[3] = dose: 200.0 mg/kg/injection, schedule: Q01DX009 (ip), vehicle: Klucel (hydroxypropylcellulose) (HPC)
[4] = dose: 60.0 mg/kg/injection, schedule: Q01DX005 (ip), vehicle: saline with Tween-80
[5] = dose: 120.0 mg/kg/injection, schedule: Q01DX005 (ip), vehicle: saline with Tween-80
[6] = dose: 240.0 mg/kg/injection, schedule: Q01DX005 (ip), vehicle: saline with Tween-80
[7] = dose: 3.12 mg/kg/injection, schedule: Q01DX009 (ip), vehicle: saline with Tween-80
[8] = dose: 6.25 mg/kg/injection, schedule: Q01DX009 (ip), vehicle: saline with Tween-80
[9] = dose: 12.5 mg/kg/injection, schedule: Q01DX009 (ip), vehicle: saline with Tween-80
[10] = dose: 12.5 mg/kg/injection, schedule: Q01DX009 (ip), vehicle: saline
[11] = dose: 25.0 mg/kg/injection, schedule: Q01DX009 (ip), vehicle: saline
[12] = dose: 50.0 mg/kg/injection, schedule: Q01DX009 (ip), vehicle: saline
[13] = dose: 25.0 mg/kg/injection, schedule: Q01DX009 (ip), vehicle: saline with Tween-80
[14] = dose: 50.0 mg/kg/injection, schedule: Q01DX009 (ip), vehicle: saline with Tween-80
[15] = dose: 50.0 mg/kg/injection, schedule: Q01DX005 (ip), vehicle: saline with Tween-80
[16] = dose: 100.0 mg/kg/injection, schedule: Q01DX005 (ip), vehicle: saline with Tween-80
[17] = dose: 50.0 mg/kg/injection, schedule: Q01DX005 (ip), vehicle: Klucel (hydroxypropylcellulose) (HPC)
[18] = dose: 100.0 mg/kg/injection, schedule: Q01DX005 (ip), vehicle: Klucel (hydroxypropylcellulose) (HPC)
[19] = dose: 200.0 mg/kg/injection, schedule: Q01DX005 (ip), vehicle: Klucel (hydroxypropylcellulose) (HPC)
[20] = dose: 12.5 mg/kg/injection, schedule: Q01DX005 (ip), vehicle: saline
[21] = dose: 25.0 mg/kg/injection, schedule: Q01DX005 (ip), vehicle: saline
[22] = dose: 50.0 mg/kg/injection, schedule: Q01DX005 (ip), vehicle: saline
[23] = dose: 100.0 mg/kg/injection, schedule: Q01DX009 (ip), vehicle: saline
[24] = dose: 200.0 mg/kg/injection, schedule: Q01DX009 (ip), vehicle: saline

Measured: T/C

CNc1nncc(=O)[nH]1
inactive: [1] 107 % of control | [2] 107 % of control | [3] 99 % of control

CCOC(=O)c1cc(CC)sc1NC(=O)CC(C)=O
inactive: [4] 97 % of control | [5] 100 % of control | [6] 97 % of control

O=[N+]([O-])c1cnc(Sc2ccncn2)c([N+](=O)[O-])c1
inactive: [7] 105 % of control | [8] 98 % of control | [9] 102 % of control | [10] 100 % of control | [11] 89 % of control | [12] 99 % of control

O=[N+]([O-])c1cccc2c1CCCC2
inactive: [9] 100 % of control | [13] 109 % of control | [14] 90 % of control

O=C1C=CC(=O)N1C(=O)NCNC(=O)N1C(=O)C=CC1=O
inactive: dose: 25.0 mg/kg/injection, schedule: Q01DX005 (ip), vehicle: saline with Tween-80 99 % of control and 107 % of control | [15] 103 % of control (2×) and 106 % of control | [16] 103 % of control and 121 % of control

CN(C)c1c2c(=O)n(C)c(=O)n(C)c2nc2cccc[n+]12
inactive: [17] 95 % of control | [18] 106 % of control | [19] 104 % of control

OC(CC1CCCCN1)c1ccccc1 (stereo not given)
inactive: [20] 98 % of control | [9] 107 % of control | [21] 105 % of control | [13] 101 % of control | [22] 115 % of control | [14] 100 % of control and 102 % of control

CCOC(=O)c1cn(C(=O)CCl)c2ccccc2c1=O
inactive: [4] 103 % of control | [5] 100 % of control | [6] 97 % of control

NC(=O)Nc1cc2oc(=O)[nH]c2cc1Cl
inactive: [15] 94 % of control | [16] 95 % of control | dose: 200.0 mg/kg/injection, schedule: Q01DX005 (ip), vehicle: saline with Tween-80 90 % of control

NC(CCC(=O)NC(CSSCC(NC(=O)CCC(N)C(=O)O)C(=O)O)C(=O)O)C(=O)O (stereo not given)
inactive: [20] 94 % of control | [21] 99 % of control | [22] 99 % of control

BrC1CCC(OCc2ccccc2)C(OCc2ccccc2)C1 (stereo not given)
inactive: [1] 100 % of control | [2] 98 % of control | [3] 97 % of control

CN1COc2c(Cl)cc(Cl)cc2C1
inactive: [13] 95 % of control | [14] 90 % of control | dose: 100.0 mg/kg/injection, schedule: Q01DX009 (ip), vehicle: saline with Tween-80 86 % of control

CCOC(=O)Oc1ccc[nH]c1=O
inactive: [11] 100 % of control and 96 % of control | dose: 25.0 mg/kg/injection, schedule: Q01DX009 (sc), vehicle: saline with Tween-80 100 % of control and 109 % of control | [12] 100 % of control | dose: 50.0 mg/kg/injection, schedule: Q01DX009 (sc), vehicle: saline with Tween-80 108 % of control and 109 % of control | [23] 108 % of control and 109 % of control | dose: 100.0 mg/kg/injection, schedule: Q01DX009 (sc), vehicle: saline with Tween-80 106 % of control and 115 % of control | [24] 111 % of control and 113 % of control | dose: 200.0 mg/kg/injection, schedule: Q01DX009 (sc), vehicle: saline with Tween-80 104 % of control and 116 % of control | dose: 400.0 mg/kg/injection, schedule: Q01DX009 (ip), vehicle: saline 117 % of control and 124 % of control | dose: 400.0 mg/kg/injection, schedule: Q01DX009 (sc), vehicle: saline with Tween-80 101 % of control and 108 % of control | dose: 600.0 mg/kg/injection, schedule: Q01DX009 (sc), vehicle: saline with Tween-80 107 % of control and 112 % of control

C[Si](C)(C)CN=P(c1ccccc1)(c1ccccc1)c1ccccc1
inactive: [4] 102 % of control | [5] 103 % of control | [6] 105 % of control

CCCCCC(CN(C)C)C(O)/C=C/c1ccc(Cl)c(Cl)c1 (stereo not given)
inactive: [10] 109 % of control | [11] 107 % of control

Cc1ccc(S(=O)(=O)C(=S)Sc2ccccc2)cc1
inactive: [7] 104 % of control | [8] 105 % of control | dose: 12.5 mg/kg/injection, schedule: Q01DX009 (ip), vehicle: alcohol 104 % of control | [9] 109 % of control | dose: 25.0 mg/kg/injection, schedule: Q01DX009 (ip), vehicle: alcohol 107 % of control | dose: 50.0 mg/kg/injection, schedule: Q01DX009 (ip), vehicle: alcohol 107 % of control | [14] 123 % of control

CC1=C(C)[C@]2(C)C(C)[C@]13Cn1c(=O)n(-c4ccccc4)c(=O)n1[C@@]32C (stereo not given in full)
inactive: [17] 95 % of control | [18] 94 % of control | [19] 100 % of control

CCCCCC(=O)Cc1cc(OC)cc(O)c1C(=O)Oc1cc(CCCCC)c(C(=O)O)c(OC)c1
inactive: dose: 0.25 mg/kg/injection, schedule: Q01DX009 (ip), vehicle: saline with Tween-80 101 % of control | dose: 0.5 mg/kg/injection, schedule: Q01DX009 (ip), vehicle: saline with Tween-80 104 % of control | dose: 1.0 mg/kg/injection, schedule: Q01DX009 (ip), vehicle: saline with Tween-80 108 % of control

COc1ccc(C(=O)CCc2c(-c3ccccc3)[nH]c3ccccc23)c(O)c1
inactive: [4] 107 % of control | [5] 100 % of control | [6] 97 % of control

COc1cc(NC(=O)c2ccc(NC(=O)c3ccc(N)cc3)cc2)c(OC)cc1N=Nc1ccc(N=Nc2ccc3cc(S(=O)(=O)O)cc(S(=O)(=O)O)c3c2)c(C)c1
inactive: [22] 106 % of control (2×) and 111 % of control | dose: 100.0 mg/kg/injection, schedule: Q01DX005 (ip), vehicle: saline 106 % of control and 109 % of control and 115 % of control | dose: 200.0 mg/kg/injection, schedule: Q01DX005 (ip), vehicle: saline 114 % of control and 115 % of control and 123 % of control | dose: 400.0 mg/kg/injection, schedule: Q01DX005 (ip), vehicle: saline 116 % of control and 117 % of control

COn1c2ccccc2c2c1cc1ccccc1[n+]2[O-]
inactive: dose: 12.5 mg/kg/injection, schedule: Q01DX005 (ip), vehicle: Klucel (hydroxypropylcellulose) (HPC) 113 % of control | dose: 25.0 mg/kg/injection, schedule: Q01DX005 (ip), vehicle: Klucel (hydroxypropylcellulose) (HPC) 111 % of control | [17] 106 % of control | [18] 90 % of control | [19] 94 % of control

NC(=Nc1ccccc1)N(c1ccccc1)c1nc(=S)ss1
inactive: dose: 100.0 mg/kg/injection, schedule: Q04DX002 (ip), vehicle: saline with Tween-80 104 % of control | dose: 200.0 mg/kg/injection, schedule: Q04DX002 (ip), vehicle: saline with Tween-80 93 % of control | dose: 400.0 mg/kg/injection, schedule: Q04DX002 (ip), vehicle: saline with Tween-80 87 % of control

CC(C)=CCC(OC(=O)CC(C)(C)O)C1=CC(=O)c2c(O)ccc(O)c2C1=O (stereo not given)
inactive: dose: 18.75 mg/kg/injection, schedule: Q01DX005 (ip), vehicle: Klucel (hydroxypropylcellulose) (HPC) 90 % of control | dose: 37.5 mg/kg/injection, schedule: Q01DX005 (ip), vehicle: Klucel (hydroxypropylcellulose) (HPC) 100 % of control

CCOC(=O)CC(=O)c1ccc(Cl)cc1
inactive: [11] 100 % of control | [12] 100 % of control | [23] 104 % of control | [24] 101 % of control

Nc1ccccc1-c1nnc(-c2ccccc2)o1
inactive: [4] 100 % of control | [5] 89 % of control | [6] 86 % of control

From PubChem BioAssay AID330 (DTP/NCI, 2004)
